The values below come from US20170304388A1, “NEW INDICATION OF CARDIOVASCULAR DRUGS FOR PREPARATION OF CANCER INHIBITION PHARMACEUTICAL COMPOSITION” (LAUNX BIOMEDICAL CO., LTD., priority 2014, published 2017).

What all share (type): cell-based
One assay concerns cancer cell lines. The experiment in a line: Growth inhibitory effects on the panel of cancer cell lines. As to conditions: drug 10 μM, 72 hours; for Numbers of inhibitory effect on cancer cell line: count of cancer cell lines inhibited; for inhibition effect on different cancer cell lines (in words): WST-1.
Assay [1] relates to TSGH-8301 (Urinary Bladder Carcinoma). The experiment in a line: Cell viability analysis (WST-1), TSGH-8301. As to conditions: WST-1, OD450 nm, read-out: survival rate (viability) of cancer cells, TSGH. Background: Formazan colour is commonly taken as a measure of viable cells.
For assay [2], the system named is A375 (Amelanotic Melanoma). The experiment in a line: Cell viability analysis (WST-1), A375. As to conditions: Homo sapiens, WST-1, OD450 nm, lower viability = better inhibition, read-out: survival rate (viability) of cancer cells, A375.
Assay [3] has as its system LoVo (Colorectal Adenocarcinoma). Briefly: Cell viability analysis (WST-1), LoVo. As to conditions: Homo sapiens, LoVo, WST-1, OD450 nm, read-out: survival rate (viability) of cancer cells, LoVo.
Assay [4] deals with AGS (Gastric Adenocarcinoma). The experiment in a line: Cell viability analysis (WST-1), AGS. As to conditions: WST-1, OD450 nm, read-out: survival rate (viability) of cancer cells, AGS.
Assay [5] relates to HL-60 (Acute Promyelocytic Leukemia). Briefly: Cell viability analysis (WST-1), HL-60. As to conditions: Homo sapiens, HL-60; Table 3; drug 10 μM, 72 hours, WST-1, OD450 nm; read-out: survival rate (viability) of cancer cells, HL-60.
Assay [6] concerns MKN-45 (Gastric Adenocarcinoma). Briefly: Cell viability analysis (WST-1), MKN-45. As to conditions: Homo sapiens, WST-1, OD450 nm, read-out: survival rate (viability) of cancer cells, MKN-45.
Assay [7] has as its system HeLa (Cervix Adenocarcinoma). The experiment in a line: Cell viability analysis (WST-1), HeLa. As to conditions: Homo sapiens, HeLa, WST-1, OD450 nm, read-out: survival rate (viability) of cancer cells, HeLa.
Assay [8] concerns A549 (Lung Adenocarcinoma). The experiment in a line: Cell viability analysis (WST-1), A549. As to conditions: Homo sapiens, WST-1, OD450 nm, read-out: survival rate (viability) of cancer cells, A549.
Assay [9] deals with MCF7 (Mammary Gland, Adenocarcinoma). Briefly: Cell viability analysis (WST-1), MCF7. As to conditions: Homo sapiens, WST-1, OD450 nm, read-out: survival rate (viability) of cancer cells, MCF7.
Assay [10] relates to HepG2 (Hepatocellular Carcinoma). Briefly: Cell viability analysis (WST-1), HepG2. As to conditions: Homo sapiens, WST-1, OD450 nm, read-out: survival rate (viability) of cancer cells, HepG2.
The subject of assay [11] is H1650 (Lung Adenocarcinoma). The experiment in a line: Cell viability analysis (WST-1), H1650. As to conditions: Homo sapiens, WST-1, OD450 nm, read-out: survival rate (viability) of cancer cells, H1650.
The test system of assay [12] is PC3 (Prostate Adenocarcinoma). Briefly: Cell viability analysis (WST-1), PC3. As to conditions: WST-1, OD450 nm, read-out: survival rate (viability) of cancer cells, PC3.
Assay [13] has as its system HCT116 (Colorectal Carcinoma). The experiment in a line: Cell viability analysis (WST-1), HCT116. As to conditions: Homo sapiens, HCT-116, 72 h, Table 3, drug 10 μM, WST-1, OD450 nm, read-out: survival rate (viability) of cancer cells, HCT116 (WT).
Where [14] appears, read: A-375, 72 h, Table 3, drug 10 μM.
Setting [15] is: MKN-45, 72 h, Table 3, drug 10 μM.
The mark [16] stands for this setting: A549, 72 h, Table 3, drug 10 μM.
Setting [17] is: MCF7, 72 h, Table 3, drug 10 μM.
Setting [18] is: HepG2, 72 h, Table 3, drug 10 μM.
[19] abbreviates: NCI-H1650, 72 h, Table 3, drug 10 μM.

Each structure is given as a SMILES string. Where a name gives a salt, the structure may show the parent alone. Read-outs that look alike come from different tables or passages of the source.

Turning to `Cc1cnc(C(=O)O)c[n+]1[O-]` [Acipimox], the “Numbers of inhibitory effect on cancer cell line” value (“Numbers of inhibitory effect” below) in the assay with cancer cell lines worked out at 0. Besides, the “inhibition effect on different cancer cell lines (in words)” value in the assay with cancer cell lines is reported as “significant inhibition effect”. In addition, the viability at 10 µM in assay [1] (72 h, Table 3, drug 10 μM) turned out to be 99.8%; in [2] (setting [14]), 124%; in assay [3] (72 h, Table 3, drug 10 μM), 77.4%; in assay [4] (72 h, Table 3, drug 10 μM), 87.5%; in assay [5] it was 102%; in assay [6] (setting [15]), 80.2%. The viability at 10 µM was found to be 87.6% in [7] (72 h, Table 3, drug 10 μM); 108% in assay [8] (setting [16]); 75.8% in assay [9] (setting [17]); 99.8% in [10] (setting [18]); 89.6% in assay [11] (setting [19]); 94.5% in assay [12] (72 h, Table 3, drug 10 μM). In addition, the viability at 10 µM in assay [13] was 79.4%.
For `CCN(CC)CCOC(=O)C(c1ccccc1)c1ccccc1` [Adiphenine HCl], the “Numbers of inhibitory effect” value in the assay on cancer cell lines came to 0. In addition, the “inhibition effect on different cancer cell lines (in words)” value with cancer cell lines is reported as “significant inhibition effect”. Moreover, the viability at 10 µM in assay [1] (72 h, Table 3, drug 10 μM) worked out at 82%; in assay [2] (setting [14]) it was 87.6%; in [3] (72 h, Table 3, drug 10 μM), 95.7%; in assay [4] (72 h, Table 3, drug 10 μM), 109%; in [5] it was 105%; in assay [6] (setting [15]) it was 95.7%. Also, the viability at 10 µM in [7] (72 h, Table 3, drug 10 μM) came to 96.4%; in assay [8] (setting [16]), 86.8%; in assay [9] (setting [17]), 103%; in assay [10] (setting [18]), 95.5%; in [11] (setting [19]), 119%; in [12] (72 h, Table 3, drug 10 μM), 102%. The viability at 10 µM in assay [13] turned out to be 134%.
With `COCCCOc1cc(C[C@@H](C[C@H](N)[C@@H](O)C[C@H](C(=O)NCC(C)(C)C(N)=O)C(C)C)C(C)C)ccc1OC` [Aliskiren hemifumarate], the “Numbers of inhibitory effect” value in the assay on cancer cell lines is reported as 0. Besides, the “inhibition effect on different cancer cell lines (in words)” value in the assay on cancer cell lines is listed as “significant inhibition effect”. In addition, the viability at 10 µM in assay [1] (72 h, Table 3, drug 10 μM) turned out to be 73.3%; in assay [2] (setting [14]), 91.2%; in [3] (72 h, Table 3, drug 10 μM), 99.5%; in assay [4] (72 h, Table 3, drug 10 μM), 81.8%; in assay [5] it was 98.5%; in assay [6] (setting [15]) it was 85.1%. Besides, the viability at 10 µM in assay [7] (72 h, Table 3, drug 10 μM) stood at 108%; in assay [8] (setting [16]), 92%; in [9] (setting [17]) it was 99.1%; in [10] (setting [18]), 94.2%; in [11] (setting [19]), 79.8%; in assay [12] (72 h, Table 3, drug 10 μM) it was 89%. Besides, the viability at 10 µM in [13] was 97.2%.
In the case of `CCOC(=O)[C@H](CCc1ccccc1)N[C@H]1CCc2ccccc2N(CC(=O)O)C1=O` [Benazepril hydrochloride], in the assay with cancer cell lines, the “Numbers of inhibitory effect” value was determined as 0. The “inhibition effect on different cancer cell lines (in words)” value in the assay with cancer cell lines was “significant inhibition effect”. The viability at 10 µM worked out at 77.5% in assay [1] (72 h, Table 3, drug 10 μM); 104% in [2] (setting [14]); 96% in [3] (72 h, Table 3, drug 10 μM); 76.7% in assay [4] (72 h, Table 3, drug 10 μM); 93.6% in [5]; 103% in assay [6] (setting [15]). The viability at 10 µM in assay [7] (72 h, Table 3, drug 10 μM) was determined as 75.9%; in assay [8] (setting [16]), 81.8%; in assay [9] (setting [17]) it was 126%; in assay [10] (setting [18]), 93%; in assay [11] (setting [19]), 61.6%; in [12] (72 h, Table 3, drug 10 μM), 80.7%. Further, the viability at 10 µM in assay [13] was determined as 60%.
As to `CC(=O)Oc1ccc(C(c2ccc(OC(C)=O)cc2)c2ccccn2)cc1` [Bisacodyl], in the assay on cancer cell lines, the “Numbers of inhibitory effect” value is given as 0. Also, in the assay on cancer cell lines, the “inhibition effect on different cancer cell lines (in words)” value is on record as “significant inhibition effect”. Also, the viability at 10 µM in assay [1] (72 h, Table 3, drug 10 μM) came to 104%; in [2] (setting [14]) it was 88%; in [3] (72 h, Table 3, drug 10 μM), 85.5%; in assay [4] (72 h, Table 3, drug 10 μM), 107%; in [5], 96%; in assay [6] (setting [15]), 132%. For the same compound, the viability at 10 µM in [7] (72 h, Table 3, drug 10 μM) amounted to 89.2%; in assay [8] (setting [16]) it was 66.7%; in [9] (setting [17]) it was 65%; in assay [10] (setting [18]) it was 100%; in [11] (setting [19]), 93.6%; in assay [12] (72 h, Table 3, drug 10 μM), 83.7%. Further, the viability at 10 µM in assay [13] is 122%.
With `CC(C)NCC(O)COc1ccc(COCCOC(C)C)cc1` (stereo not drawn) [Bisoprolol], the “Numbers of inhibitory effect” value in the assay with cancer cell lines is 0. The “inhibition effect on different cancer cell lines (in words)” value with cancer cell lines was “significant inhibition effect”. Moreover, the viability at 10 µM stood at 87.5% in [1] (72 h, Table 3, drug 10 μM); 117% in [2] (setting [14]); 119% in assay [3] (72 h, Table 3, drug 10 μM); 80.3% in [4] (72 h, Table 3, drug 10 μM); 85.7% in [5]; 79.7% in assay [6] (setting [15]). In addition, the viability at 10 µM is 111% in assay [7] (72 h, Table 3, drug 10 μM); 124% in assay [8] (setting [16]); 112% in assay [9] (setting [17]); 108% in [10] (setting [18]); 80.7% in assay [11] (setting [19]); 95.2% in [12] (72 h, Table 3, drug 10 μM). In addition, in [13], the viability at 10 µM is 118%.
In the case of `Cc1[nH]c(=O)c(C#N)cc1-c1ccncc1` [Milrinone (Primacor), Milrinone], the “Numbers of inhibitory effect” value with cancer cell lines worked out at 0. Besides, the “inhibition effect on different cancer cell lines (in words)” value in the assay on cancer cell lines is recorded as “significant inhibition effect”. The viability at 10 µM amounted to 90.5% in assay [3] (72 h, Table 3, drug 10 μM); 130% in assay [4] (72 h, Table 3, drug 10 μM); 112% in assay [5]; 92.9% in [6] (setting [15]); 99% in assay [7] (72 h, Table 3, drug 10 μM); 90.9% in assay [8] (setting [16]). Besides, the viability at 10 µM is 98.5% in assay [9] (setting [17]); 98.5% in assay [10] (setting [18]); 86.2% in assay [11] (setting [19]); 92% in assay [12] (72 h, Table 3, drug 10 μM); 104% in assay [13].
Regarding `Cc1cccc(C)c1N=C1NCCCS1` [Xylazine HCl], in the assay with cancer cell lines, the “Numbers of inhibitory effect” value is on record as 0. In addition, in the assay with cancer cell lines, the “inhibition effect on different cancer cell lines (in words)” value is listed as “significant inhibition effect”. The viability at 10 µM in assay [1] (Table 3, drug 10 μM, 72 hours) came to 61.5%; in assay [2] (A-375, Table 3, drug 10 μM, 72 hours) it was 63.5%; in assay [3] (Table 3, drug 10 μM, 72 hours) it was 96.6%; in assay [4] (Table 3, drug 10 μM, 72 hours), 86.3%; in assay [5], 116%; in assay [6] (MKN-45, Table 3, drug 10 μM, 72 hours), 88.7%. Besides, the viability at 10 µM stood at 65.1% in [7] (Table 3, drug 10 μM, 72 hours); 71.7% in assay [8] (A549, Table 3, drug 10 μM, 72 hours); 104% in assay [9] (MCF7, Table 3, drug 10 μM, 72 hours); 83.5% in assay [10] (HepG2, Table 3, drug 10 μM, 72 hours); 67.2% in assay [11] (NCI-H1650, Table 3, drug 10 μM, 72 hours); 105% in assay [12] (Table 3, drug 10 μM, 72 hours).

As usually defined, the viability is a read-out of living cells in per cent, often relative to untreated cells.
